Biological target: human URAT1 (Homo sapiens (Human), UniProt Q96S37)
Experiment: Test for uric acid transport inhibition using human URAT1 expression cell
Format: cell-based
Details: human URAT1 stable expression CHO cell; 14C-labeled uric acid 38 μM final concentration; incorporation at room temperature for 5 minutes; 100% window defined with benzbromarone 100 μM; read-out: URAT1 Inhibitory Activity (IC50)
Method: In this Example, it was evaluated whether the Example compound has the URAT1 inhibitory activity.
Human URAT1 full-length cDNA was introduced to an expression vector pcDNA5/FRT/V5-His TOPO (registered trademark) (Invitrogen Corporation). The obtained expression plasmid was introduced to Chinese hamster ovary cell (hereinafter referred to as the CHO cell) by the liposome method using Lipofectamine LTX (Invitrogen), and cultured in a selection medium including hygromycin, whereby to prepare human URAT1 stable expression cell.
The human URAT1 expression CHO cell was cultured using D-MEM/F-12 (1:1) mixed medium including 10% bovine fetal serum and hygromycin at 37° C. in the presence of 5% CO2. The cells were seeded onto a 96 well plate (Corning Incorporated) in 0.8×10^5 cells/well, and after 24 hours, the test for uric acid transport inhibition below was performed.
The medium was removed by aspiration, and then the cells were washed once with an assay buffer including 125 mM of sodium gluconate, 4.8 mM of potassium gluconate, 1.2 mM of potassium dihydrogen phosphate, 1.2 mM of magnesium sulfate, 1.3 mM of calcium gluconate and 5.6 mM of glucose. 50 μL assay buffer including the test compound in various concentrations was added, and further 50 μL assay buffer including a radioactive ligand (uric acid labeled with ^14C; 38 μM final concentration) was added, and incorporation reaction was performed at room temperature for 5 minutes. Immediately after completion of the reaction, the reaction mixture was washed twice with 100 μL ice-cold assay buffer, and 100 μL of 0.1 N sodium hydroxide was added. The reaction mixture was stirred to lyse the cells, and 4 mL Hionic-Fluor (Packard BioScience CO) was added, and then the radioactivity was measured with a liquid scintillation counter (Beckman Coulter, Inc. and Packard BioScience CO).
The radioactivity when each concentration of the test compound was added (uric acid incorporation activity, %) was calculated in which the difference of the radioactivity when the test compound was not added (DMSO added), and the radioactivity when a positive control compound, benzbromarone (known URAT1 inhibitor) was added in 100 μM, was taken as 100%, and the concentration of the test compound when the uric acid incorporation activity was inhibited to 50% (IC50) was obtained.

Sequence of human URAT1 (Q96S37 whole entry): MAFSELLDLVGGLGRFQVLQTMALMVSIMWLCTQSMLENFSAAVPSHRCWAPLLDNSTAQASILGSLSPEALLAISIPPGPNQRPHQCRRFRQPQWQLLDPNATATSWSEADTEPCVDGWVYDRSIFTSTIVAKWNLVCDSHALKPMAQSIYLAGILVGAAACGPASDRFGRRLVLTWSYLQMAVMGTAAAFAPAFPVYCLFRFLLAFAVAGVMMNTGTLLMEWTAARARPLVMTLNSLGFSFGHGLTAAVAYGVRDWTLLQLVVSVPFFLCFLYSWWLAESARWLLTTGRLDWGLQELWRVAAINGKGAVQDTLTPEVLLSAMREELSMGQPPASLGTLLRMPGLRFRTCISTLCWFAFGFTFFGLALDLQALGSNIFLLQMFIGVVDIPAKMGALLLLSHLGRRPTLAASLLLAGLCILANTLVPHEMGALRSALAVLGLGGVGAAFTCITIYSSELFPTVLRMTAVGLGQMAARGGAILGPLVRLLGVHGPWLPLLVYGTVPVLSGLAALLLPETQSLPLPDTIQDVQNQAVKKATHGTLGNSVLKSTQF

Row | Compound | IC50
1 | Cc1nn(Cc2c(Cl)cccc2Cl)c2cc(CS(=O)(=O)O)ccc12 [Example 139, [1-(2,6-dichlorobenzyl)-3-methyl-1H-indazole-6-yl]methanesulfonic acid] | 653 nM
2 | CCc1nn(Cc2c(Cl)cccc2Cl)c2cc(CC(=O)O)ccc12 [Example 140, 2-[1-(2,6-dichlorobenzyl)-3-ethyl-1H-indazole-6-yl]acetic acid] | 24 nM
3 | CCc1nn(Cc2c(C)cccc2C)c2cc(CC(=O)O)ccc12 [Example 142, 2-[1-(2,6-dimethylbenzyl)-3-ethyl-1H-indazole-6-yl]acetic acid] | 50 nM
4 | CCc1nn(Cc2c(C)cccc2C)c2cc(C(=O)O)ccc12 [Example 143, 1-(2,6-dimethylbenzyl)-3-ethyl-1H-indazole-6-carboxylic acid] | 35 nM
5 | CCc1nn(Cc2c(Cl)cccc2Cl)c2cc(C(=O)O)ccc12 [Example 144, 1-(2,6-dichlorobenzyl)-3-ethyl-1H-indazole-6-carboxylic acid] | 42 nM
6 | CCc1nn(Cc2c(Cl)cccc2Cl)c2cc(CCC(=O)O)ccc12 [Example 145, 3-[1-(2,6-dichlorobenzyl)-3-ethyl-1H-indazole-6-yl]propionic acid] | 26 nM
7 | CCc1nn(Cc2c(Cl)cccc2Cl)c2cc(/C=C/C(=O)O)ccc12 [Example 146, (E)-3-[1-(2,6-dichlorobenzyl)-3-ethyl-1H-indazole-6-yl]acrylic acid] | 53 nM
8 | Cc1cccc(C)c1Cn1nc(C(C)C)c2ccc(CC(=O)O)cc21 [Example 147, 2-[1-(2,6-dimethylbenzyl)-3-isopropyl-1H-indazole-6-yl]acetic acid] | 76 nM
9 | O=C(O)Cc1ccc2c(C3CC3)nn(Cc3c(Cl)cccc3Cl)c2c1 [Example 148, 2-[3-cyclopropyl-1-(2,6-dichlorobenzyl)-1H-indazole-6-yl]acetic acid] | 49 nM
10 | Cc1cccc(C)c1Cn1nc(Cl)c2ccc(C(=O)O)cc21 [Example 149, 3-chloro-1-(2,6-dimethylbenzyl)-1H-indazole-6-carboxylic acid] | 53 nM
11 | N#Cc1nn(Cc2c(Cl)cccc2Cl)c2cc(C(=O)O)ccc12 [Example 150, 3-cyano-1-(2,6-dichlorobenzyl)-1H-indazole-6-carboxylic acid] | 295 nM
12 | Cc1nn(Cc2c(Cl)cccc2Cl)c2nc(Cc3nnn[nH]3)ccc12 [Example 152, 1-(2,6-dichlorobenzyl)-3-methyl-6-(1H-tetrazole-5-ylmethyl)-1H-pyrazolo[3,4-b]pyridine] | 184 nM
13 | Cc1nn(Cc2c(Cl)cccc2Cl)c2cc(C(=O)O)cnc12 [Example 153, 1-(2,6-dichlorobenzyl)-3-methyl-1H-pyrazolo[4,3-b]pyridine-6-carboxylic acid] | 361 nM
14 | Cc1nn(Cc2c(Cl)cccc2Cl)c2cc(-c3nnn[nH]3)cnc12 [Example 156, 1-(2,6-dichlorobenzyl)-3-methyl-6-(1H-tetrazole-5-yl)-1H-pyrazolo[4,3-b]pyridine] | 438 nM
15 | Cc1nn(Cc2cccc(Cl)c2Cl)c2cc(-c3nnn[nH]3)cnc12 [Example 158, 1-(2,3-dichlorobenzyl)-3-methyl-6-(1H-tetrazole-5-yl)-1H-pyrazolo[4,3-b]pyridine] | 292 nM
16 | Cc1cccc(Cl)c1Cn1nc(C)c2ncc(-c3nnn[nH]3)cc21 [Example 160, 1-(2-chloro-6-methylbenzyl)-3-methyl-6-(1H-tetrazole-5-yl)-1H-pyrazolo[4,3-b]pyridine] | 124 nM

The next lines start with the values.

Row | IC50 | Compound
17 | 113 nM | Cc1ccc(C)c(Cn2nc(C)c3ncc(-c4nnn[nH]4)cc32)c1 [Example 163, 1-(2,5-dimethylbenzyl)-3-methyl-6-(1H-tetrazole-5-yl)-1H-pyrazolo[4,3-b]pyridine]
18 | 55 nM | Cc1nn(Cc2c(Cl)cccc2C2CC2)c2cc(-c3nnn[nH]3)cnc12 [Example 164, 1-(2-chloro-6-cyclopropylbenzyl)-3-methyl-6-(1H-tetrazole-5-yl)-1H-pyrazolo[4,3-b]pyridine]
19 | 80 nM | CCc1nn(Cc2c(Cl)cccc2Cl)c2cc(C(=O)O)cnc12 [Example 167, 1-(2,6-dichlorobenzyl)-3-ethyl-1H-pyrazolo[4,3-b]pyridine-6-carboxylic acid]
20 | 80 nM | CCc1nn(Cc2c(C)cccc2Cl)c2cc(C(=O)O)cnc12 [Example 170, 1-(2-chloro-6-methylbenzyl)-3-ethyl-1H-pyrazolo[4,3-b]pyridine-6-carboxylic acid]
21 | 52 nM | CCc1nn(Cc2c(Cl)cccc2Cl)c2cc(-c3nnn[nH]3)cnc12 [Example 171, 1-(2,6-dichlorobenzyl)-3-ethyl-6-(1H-tetrazole-5-yl)-1H-pyrazolo[4,3-b]pyridine]
22 | 162 nM | O=C(O)c1cnc2c(Cl)nn(Cc3c(Cl)cccc3Cl)c2c1 [Example 172, 3-chloro-1-(2,6-dichlorobenzyl)-1H-pyrazolo[4,3-b]pyridine-6-carboxylic acid]
23 | 148 nM | Cc1cccc(Cl)c1Cn1nc(Cl)c2ncc(C(=O)O)cc21 [Example 174, 3-chloro-1-(2-chloro-6-methylbenzyl)-1H-pyrazolo[4,3-b]pyridine-6-carboxylic acid]
24 | 163 nM | Clc1cccc(Cl)c1Cn1nc(Cl)c2ncc(-c3nnn[nH]3)cc21 [Example 175, 3-chloro-1-(2,6-dichlorobenzyl)-6-(1H-tetrazole-5-yl)-1H-pyrazolo[4,3-b]pyridine]
25 | 104 nM | Cc1cccc(Cl)c1Cn1nc(Cl)c2ncc(-c3nnn[nH]3)cc21 [Example 177, 3-chloro-1-(2-chloro-6-methylbenzyl)-6-(1H-tetrazole-5-yl)-1H-pyrazolo[4,3-b]pyridine]
26 | 52 nM | CCc1nn(Cc2c(Cl)cccc2Cl)c2cc(-c3nnn[nH]3)ccc12 [Example 182, 1-(2,6-dichlorobenzyl)-3-ethyl-6-(1H-tetrazole-5-yl)-1H-indazole]
27 | 15 nM | Cc1nn(Cc2c(Cl)cccc2Cl)c2cc(C(F)(F)C(=O)O)ccc12 [Example 183, [1-(2,6-dichlorobenzyl)-3-methyl-1H-indazole-6-yl]difluoroacetic acid]
28 | 17 nM | Cc1nn(Cc2c(Cl)cccc2C2CC2)c2cc(CCC(=O)O)ccc12 [Example 185, 3-[1-(2-chloro-6-cyclopropylbenzyl)-3-methyl-1H-indazole-6-yl]propionic acid]
29 | 165 nM | Cc1cccc(C)c1Cn1c(=O)n(C(C)C)c2ccc(C(=O)O)cc21 [Example 186, 3-(2,6-dimethylbenzyl)-1-isopropyl-2-oxo-2,3-dihydro-1H-benzimidazole-5-carboxylic acid]

— US8987473B2, “Ring-fused compound” (Sato Pharmaceutical Co., Ltd., priority 2011, dated 2015)
